{"source": "patent US5998654A", "about": "“Retinoic acid receptor antagonist compounds and methods” (Ligand Pharmaceuticals Incorporated, priority 1997, dated 1999)", "key": {"[1]": {"target": "T1, RARα (Homo sapiens, UniProt P10276)", "T1 sequence (P10276 1-462)": "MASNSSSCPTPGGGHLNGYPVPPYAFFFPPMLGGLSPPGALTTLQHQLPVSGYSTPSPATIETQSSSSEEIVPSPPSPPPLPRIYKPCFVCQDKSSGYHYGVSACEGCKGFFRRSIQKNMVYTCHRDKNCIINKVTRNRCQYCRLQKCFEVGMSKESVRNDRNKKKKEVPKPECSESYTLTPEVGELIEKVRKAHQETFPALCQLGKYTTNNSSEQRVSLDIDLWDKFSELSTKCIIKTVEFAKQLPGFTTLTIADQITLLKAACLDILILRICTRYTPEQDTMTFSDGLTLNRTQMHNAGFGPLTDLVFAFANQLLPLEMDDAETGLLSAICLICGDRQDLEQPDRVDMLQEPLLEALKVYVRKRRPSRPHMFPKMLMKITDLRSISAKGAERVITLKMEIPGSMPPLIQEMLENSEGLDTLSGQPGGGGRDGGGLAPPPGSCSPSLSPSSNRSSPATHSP", "test": "RAR binding, RARα", "settings": "Kd from IC50 by Cheng-Prussof equation", "protocol": "(§1) Non-specific binding was defined as that binding remaining in the presence of 500 nM of the appropriate unlabelled compound. At the end of the incubation period, bound from free ligand were separated. The amount of bound tritiated retinoids was determined by liquid scintillation counting of an aliquot (700 μL) of the supernatant fluid or the hydroxylapatite pellet.\n(§2) After correcting for non-specific binding, IC50 values were determined. […] The IC50 value was determined graphically from a log-logit plot of the data. The Kd values were determined by application of the Cheng-Prussof equation to the IC50 values, the labeled ligand concentration and the Kd of the labeled ligand."}, "[2]": {"target": "T2, RARβ (Homo sapiens, UniProt P10826)", "T2 sequence (P10826 1-448 isoform P10826-2)": "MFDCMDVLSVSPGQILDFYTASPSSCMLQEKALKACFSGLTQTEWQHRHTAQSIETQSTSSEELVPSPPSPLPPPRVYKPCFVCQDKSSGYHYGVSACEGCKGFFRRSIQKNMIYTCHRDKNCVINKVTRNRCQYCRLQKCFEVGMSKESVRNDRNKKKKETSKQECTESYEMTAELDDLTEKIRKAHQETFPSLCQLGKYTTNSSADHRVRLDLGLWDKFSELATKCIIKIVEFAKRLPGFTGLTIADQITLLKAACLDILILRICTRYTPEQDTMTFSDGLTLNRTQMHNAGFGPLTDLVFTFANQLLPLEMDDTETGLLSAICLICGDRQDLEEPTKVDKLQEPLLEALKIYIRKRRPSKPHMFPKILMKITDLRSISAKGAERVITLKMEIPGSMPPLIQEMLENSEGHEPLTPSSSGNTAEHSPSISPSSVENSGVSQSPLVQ", "test": "RAR binding, RARβ", "settings": "Kd from IC50 by Cheng-Prussof equation", "protocol": "as §1, §2"}, "[3]": {"tested_on": "RARs", "test": "co-transfection assay, activity on RARs (overall statement)", "type": "cell-based, human", "settings": "comparison compound", "protocol": "Utilizing the \"cis-trans\" or \"co-transfection\" assay described by Evans et al., Science, 240:889-95 (May 13, 1988), the disclosure of which is herein incorporated by reference, the RAR antagonist compounds of the present invention were tested and found to have strong, specific activity as antagonists of RARs in the presence of RAR agonists. This assay is described in further detail in U.S. Pat. Nos. 4,981,784 and 5,071,773, the disclosures of which are incorporated herein by reference.\nIn the co-transfection assay, a cloned cDNA for an IR (e.g., human RARα:, RARβ, RXRγ) under the control of a constitutive promoter (e.g., the SV 40 promoter) is introduced by transfection (a procedure to induce cells to take up foreign genes) into a background cell substantially devoid of endogenous IRs. This introduced gene directs the recipient cells to make the IR protein of interest. A second gene is also introduced (co-transfected) into the same cells in conjunction with the IR gene. […]\nThe co-transfection assay can detect small molecule agonists or antagonists of target IRs. […] This activity can be conveniently measured, e.g., by increasing luciferase production, which reflects compound-dependent, IR-mediated increases in reporter transcription. […]"}, "[4]": {"target": "T3, RARγ (Homo sapiens, UniProt P13631)", "T3 sequence (P13631 1-454)": "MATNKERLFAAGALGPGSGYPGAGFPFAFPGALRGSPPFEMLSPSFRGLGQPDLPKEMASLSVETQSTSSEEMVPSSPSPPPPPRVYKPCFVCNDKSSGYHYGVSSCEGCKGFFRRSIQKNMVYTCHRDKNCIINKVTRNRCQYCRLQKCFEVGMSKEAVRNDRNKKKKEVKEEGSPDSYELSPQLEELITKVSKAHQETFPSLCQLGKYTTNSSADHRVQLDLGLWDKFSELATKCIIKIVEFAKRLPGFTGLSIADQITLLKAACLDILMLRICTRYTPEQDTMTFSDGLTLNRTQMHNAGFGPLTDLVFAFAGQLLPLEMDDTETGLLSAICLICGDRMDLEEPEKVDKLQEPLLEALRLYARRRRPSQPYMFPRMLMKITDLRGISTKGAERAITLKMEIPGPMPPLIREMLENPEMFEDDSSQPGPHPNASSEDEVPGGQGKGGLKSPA", "test": "RAR binding, RARγ", "settings": "Kd from IC50 by Cheng-Prussof equation", "protocol": "as §1, §2"}}, "data": [{"smiles": "COc1c(C(C)(C)C)cc(/C(C)=C/C=C/C(C)=C/C(=O)O)cc1C(C)(C)C", "note": "[A, reference compound]", "values": [{"measurement": "Kd", "setting": "[1]", "value": 1, "unit": "nM"}, {"measurement": "Kd", "setting": "[2]", "value": 0.4, "unit": "nM"}, {"measurement": "type of activity on RAR (in words)", "setting": "[3]", "value": "displays only activity as an RAR? agonist"}, {"measurement": "Kd", "setting": "[4]", "value": 0.5, "unit": "nM"}]}]}
